The nature of experiment [1]: Antiproliferative activity against human SKOV3 cells after 48 hrs by MTS assay. It counts as functional, cell-based. The note with it: SK-OV-3, 48 h. Background: Tetrazolium dyes change colour on reduction, which living cells bring about.
A short description of experiment [2]: Antiproliferative activity against human MIAPaCa2 cells after 48 hrs by MTS assay. It counts as functional, cell-based. The note with it: MIA PaCa-2, 48 h.
Experiment [3] can be described thus: Antiproliferative activity against human WI38 cells after 48 hrs by MTS assay. It counts as cell-based. Conditions: WI-38, 48 h.
Experiment [4] in a line: Antiproliferative activity against human PC3 cells after 48 hrs by MTS assay. It counts as functional, cell-based. The note with it: PC-3, 48 h.
A short description of experiment [5]: Cell cycle arrest in human PC3 cells assessed as accumulation at G2/M phase at antiproliferative IC50 after 48 hrs by propidium iodide staining based FACS analysis (reference value: 24 +/- 2.9%). It counts as functional. Conditions: PC-3.
Experiment [6] is described as follows: Induction of apoptosis in human PC3 cells assessed as appearance of apoptotic nuclei at antiproliferative IC50 after 48 hrs by propidium iodide staining based FACS analysis (reference value: 0.7 +/- 0.1%). It counts as functional, PC-3. On the technique in general: A flow cytometer gives signals particle by particle.
The nature of experiment [7]: Cell cycle arrest in human PC3 cells assessed as accumulation at S phase at antiproliferative IC50 after 48 hrs by propidium iodide staining based FACS analysis (reference value: 37.7 +/- 2.2%). It counts as functional. The note with it: PC-3.
Experiment [8] is described as follows: Cell cycle arrest in human PC3 cells assessed as accumulation at G0/G1 phase at antiproliferative IC50 after 48 hrs by propidium iodide staining based FACS analysis (reference value: 38.3 +/- 0.7%). It counts as functional. The note with it: PC-3.
A short description of experiment [9]: Antiproliferative activity against human A2058 cells after 48 hrs by MTS assay. It counts as functional, cell-based. Conditions: A2058, 48 h.
Experiment [10] can be described thus: Antiproliferative activity against human DU145 cells after 48 hrs by MTS assay. The note with it: DU-145, 48 h. It counts as functional, cell-based.

The term IC50 denotes the concentration that gives 50% inhibition. `COc1cc(Nc2nc(Cl)cc3c(C(C)C)n[nH]c23)cc(OC)c1OC`: the IC50 is 5.6 µM in [1], 6.1 µM in experiment [2] and 43.8 µM in [3].
The matching figures for `c1ccc(Nc2nccc3cn[nH]c23)cc1`: more than 50 µM, more than 50 µM and more than 50 µM.
For `CC(C)c1n[nH]c2c(Nc3ccccc3)nccc12` the same measures were 48.3 µM, 41.2 µM and more than 50 µM.
The matching figures for `c1ccc(Nc2nccc3c(-c4ccccc4)n[nH]c23)cc1`: 22.1 µM, 9 µM and 24.7 µM.
In the case of `COc1cc(Nc2nccc3cn[nH]c23)cc(OC)c1OC`, the IC50 in experiment [1], in experiment [2] and in experiment [3] was more than 50 µM throughout.
As to `COc1cc(Nc2nc(Cl)cc3c(-c4ccccc4)n[nH]c23)cc(OC)c1OC`, the IC50 in [4] amounted to 15 µM; in experiment [1], 5.9 µM; in [2], 6.7 µM; in [3], 21.9 µM. Also, the Activity was 23.5% in [5], 0.9% in [6], 30.3% in experiment [7] and 46.2% in experiment [8].
For `COc1cc(Nc2nccc3c(-c4ccccc4)n[nH]c23)cc(OC)c1OC`, the IC50 in [4] is 0.38 µM; in [1], 0.73 µM; in [9], 0.89 µM; in experiment [10], 0.92 µM; in [2], 3.8 µM; in experiment [3] it was 14.9 µM. For the same compound, the Activity in experiment [5] is 19.2%; in [6] it was 25.8%; in experiment [7], 0%; in experiment [8], 80.8%.
Turning to `Clc1cc2c(-c3ccccc3)n[nH]c2c(Nc2ccccc2)n1`, the IC50 came to 2.5 µM in [1], 4.3 µM in experiment [2] and 23.4 µM in [3].
The matching figures for `Clc1cc2cn[nH]c2c(Nc2ccccc2)n1`: 34.2 µM, 36.2 µM and more than 50 µM.
The matching figures for `COc1cc(Nc2nc(Cl)cc3cn[nH]c23)cc(OC)c1OC`: 13.1 µM, 16.2 µM and more than 50 µM.
For `COc1cc(Nc2nccc3c(C(C)C)n[nH]c23)cc(OC)c1OC` the same measures were 22.9 µM, 10 µM and more than 50 µM.
Consider `CC(C)c1n[nH]c2c(Nc3ccccc3)nc(Cl)cc12`, for which the half-inhibitory concentration (IC50) is more than 50 µM in experiment [1], 21.5 µM in [2] and 38.7 µM in [3].

The values above are taken from ChEMBL document CHEMBL3856279, “The discovery of new cytotoxic pyrazolopyridine derivatives” (Bioorg Med Chem Lett, 2016).
